Measurements taken from article PMC10726465, “Synthesis and Evaluation of Small Molecule Inhibitors of the Androgen Receptor N-Terminal Domain” (ACS Medicinal Chemistry Letters, 2023).
≈ marks a conversion by molar mass, not a printed value. Read-outs that look alike come from different tables or passages of the source. Each block holds one molecule with its values, some of them ahead of it.

Tests used:
[1] = test system: prostate-specific antigen (PSA) expression; assay: Inhibition of hormone-dependent expression of PSA in VCaP cells (Western blot); format: cell-based; conditions: 1 nM DHT, 24 h
Protocol: In addition to this, we evaluated hormone-dependent expression of prostate-specific antigen (PSA) in VCaP cells (see the Supporting Information).
(§1) VCaP cells, obtained from the American Type Culture Collection, were maintained in Dulbecco’s Modified Eagles Medium (DMEM) supplemented with 10% foetal bovine serum. Cells were maintained at 37°C without antibiotics in a humidified atmosphere
(§2) Inhibition of hormone-dependent expression of prostate specific antigen (PSA):
(§3) VCaP prostate cells were treated with 1 nM DHT in the absence or presence of inhibitor. After 24 hours cells were harvested and PSA detected by Western blotting and normalised against β-actin.

[2] = Thermodynamic aqueous solubility; format: physicochemical
[3] = in vitro; format: in vitro ADME; conditions: human, Caco-2
Excerpt: (§4) DMPK and physicochemical data were generated by Cyprotex Ltd, Alderley Park, Macclesfield, UK and Pharmaron Inc, Ningbo, China.

[4] = test system: Caco2 cell; assay: in vitro; format: in vitro ADME
Excerpt: as §4

[5] = Human liver microsome stability; format: in vitro ADME; conditions: human liver microsomes
Excerpt: PSA expression (%inhibition) 34%
Plots of activity against
values for each small molecule determined.
Macclesfield, UK and Pharmaron Inc, Ningbo, China.

[6] = Plasma protein binding; format: in vitro ADME; conditions: mouse
[7] = target: CYP 3A4 (Homo sapiens, UniProt P08684); assay: CYP450 inhibition (3A4); format: in vitro ADME
[8] = target: CYP 2D6 (Homo sapiens, UniProt P10635); assay: CYP450 inhibition (2D6); format: in vitro ADME
[9] = In vivo pharmacokinetic profile in male CD-1 mice; conditions: mouse
Excerpt: Encouraged by the promising in vitro profile, compound 16 was advanced, and a pharmacokinetic (PK) profile was obtained in male CD-1 mice (Table 6).

[10] = target: hERG channel (Homo sapiens, UniProt Q12809); assay: hERG channel inhibition, Q-patch clamp assay
[11] = target: T1, androgen receptor (AR) (Homo sapiens, UniProt P10275); conditions: for Lipophilic Ligand Efficiency (LLE): from VCaP GRE2-luciferase IC50 and cLogP; for Ligand Efficiency (LE): from VCaP GRE2-luciferase IC50
T1 sequence (P10275 1-920): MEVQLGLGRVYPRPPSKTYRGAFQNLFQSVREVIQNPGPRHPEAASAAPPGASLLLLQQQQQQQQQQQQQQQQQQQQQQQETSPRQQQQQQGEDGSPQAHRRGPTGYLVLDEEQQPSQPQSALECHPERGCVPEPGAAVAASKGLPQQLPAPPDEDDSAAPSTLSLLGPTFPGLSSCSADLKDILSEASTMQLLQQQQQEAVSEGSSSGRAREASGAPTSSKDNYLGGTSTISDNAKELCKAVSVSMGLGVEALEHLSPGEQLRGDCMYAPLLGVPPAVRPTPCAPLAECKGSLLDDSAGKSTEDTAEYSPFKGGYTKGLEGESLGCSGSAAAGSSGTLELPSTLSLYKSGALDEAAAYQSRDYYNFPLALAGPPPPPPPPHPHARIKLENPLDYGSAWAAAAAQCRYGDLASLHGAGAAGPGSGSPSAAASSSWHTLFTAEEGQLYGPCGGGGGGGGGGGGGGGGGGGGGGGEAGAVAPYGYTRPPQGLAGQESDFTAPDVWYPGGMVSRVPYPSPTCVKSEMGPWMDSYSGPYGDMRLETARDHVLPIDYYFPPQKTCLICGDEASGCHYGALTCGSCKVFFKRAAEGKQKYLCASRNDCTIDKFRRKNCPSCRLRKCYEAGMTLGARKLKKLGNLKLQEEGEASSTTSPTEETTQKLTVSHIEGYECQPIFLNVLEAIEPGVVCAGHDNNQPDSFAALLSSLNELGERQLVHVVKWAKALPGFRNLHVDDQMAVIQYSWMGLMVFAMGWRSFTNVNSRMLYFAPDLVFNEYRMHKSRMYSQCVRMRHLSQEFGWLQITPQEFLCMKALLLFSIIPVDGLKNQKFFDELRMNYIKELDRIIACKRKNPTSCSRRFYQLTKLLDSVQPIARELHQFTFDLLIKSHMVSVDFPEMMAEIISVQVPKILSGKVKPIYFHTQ
Protocol: as §1
Transient transfection and Luciferase Activity Assay:
Cells at 70–80% confluence in 24 well plates, were transferred to DMEM
300ng/well of the firefly reporter plasmid, GRE2-TATA-luc using JetPEI (PolyPLUS Transfection) according to the manufacturers’ protocol.
replaced with fresh DMEM +5% CSS containing either DMSO (vehicle control) or 0– 30 µM small molecules together with 1nM DHT. Twenty four hours later, medium was aspirated, cells were washed with PBS and extracted with Passive Lysis Buffer
Cell debris was removed by centrifugation at 13,000 xg for 5min and supernatants collected. Luciferase activity was measured in triplicate, using an in-house luciferase assay buffer (13 mM MgSO4 7H2O, 30 mM
amount of total cellular protein.
as §2, §3
Luciferase activity in cells treated with small molecules was determined as a percentage of the untreated control, which was set at 100%. Plots of activity against small molecule concentration (log) were analysed in GraphPad PRISM 5 and IC50 values for each small molecule determined.

[12] = target: T2, AR-v (ARNTD–DBD) (Homo sapiens, UniProt P10275); assay: AR-v splice variant activity in PC3 cells transfected with ARNTD–DBD expression plasmid and GRE2-luciferase reporter; conditions: PC-3, read-out: inhibition of AR-v activity
T2 sequence (P10275 1-632 limits assumed): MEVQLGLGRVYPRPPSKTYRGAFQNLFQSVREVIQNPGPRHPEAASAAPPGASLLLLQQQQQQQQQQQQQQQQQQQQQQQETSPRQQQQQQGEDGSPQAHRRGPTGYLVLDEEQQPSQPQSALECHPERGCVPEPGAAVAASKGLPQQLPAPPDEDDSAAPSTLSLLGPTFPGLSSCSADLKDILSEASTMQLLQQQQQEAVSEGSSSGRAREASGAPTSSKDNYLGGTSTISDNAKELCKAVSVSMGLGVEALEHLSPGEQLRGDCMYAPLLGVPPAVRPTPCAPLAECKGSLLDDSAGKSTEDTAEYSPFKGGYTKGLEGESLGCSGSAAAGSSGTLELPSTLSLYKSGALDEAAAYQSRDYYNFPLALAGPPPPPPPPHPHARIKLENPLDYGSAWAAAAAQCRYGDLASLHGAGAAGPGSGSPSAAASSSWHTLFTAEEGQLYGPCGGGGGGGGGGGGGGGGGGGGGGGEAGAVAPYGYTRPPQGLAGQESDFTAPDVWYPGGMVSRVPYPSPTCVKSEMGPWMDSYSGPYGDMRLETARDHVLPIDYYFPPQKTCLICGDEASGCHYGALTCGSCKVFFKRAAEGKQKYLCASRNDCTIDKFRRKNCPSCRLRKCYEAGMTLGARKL
Protocol: To this end, AR-v splice variant activity was determined through transfection of PC3 cells with an ARNTD–DBD expression plasmid and a GRE2-luciferase reporter gene (Figure 3).[43]

[13] = read-out: VCaP GRE2-luciferase IC50, VCaP cells, 1 nM DHT, 24 h, 0–30 µM compound

Chain of CYP 3A4 (P08684 whole entry): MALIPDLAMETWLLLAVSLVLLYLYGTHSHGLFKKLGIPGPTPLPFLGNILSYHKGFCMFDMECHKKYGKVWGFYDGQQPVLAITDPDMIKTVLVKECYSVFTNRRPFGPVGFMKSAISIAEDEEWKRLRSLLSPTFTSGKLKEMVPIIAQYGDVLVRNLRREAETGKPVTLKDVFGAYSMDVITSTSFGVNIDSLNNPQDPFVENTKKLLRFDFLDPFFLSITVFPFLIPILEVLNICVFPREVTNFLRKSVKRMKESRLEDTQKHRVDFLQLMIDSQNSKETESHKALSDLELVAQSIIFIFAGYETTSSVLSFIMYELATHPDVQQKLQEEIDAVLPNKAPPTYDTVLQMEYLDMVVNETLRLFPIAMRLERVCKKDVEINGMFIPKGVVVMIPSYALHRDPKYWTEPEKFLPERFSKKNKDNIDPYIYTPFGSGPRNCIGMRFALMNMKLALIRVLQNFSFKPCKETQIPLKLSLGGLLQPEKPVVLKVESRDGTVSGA
Chain of hERG channel (Q12809 whole entry): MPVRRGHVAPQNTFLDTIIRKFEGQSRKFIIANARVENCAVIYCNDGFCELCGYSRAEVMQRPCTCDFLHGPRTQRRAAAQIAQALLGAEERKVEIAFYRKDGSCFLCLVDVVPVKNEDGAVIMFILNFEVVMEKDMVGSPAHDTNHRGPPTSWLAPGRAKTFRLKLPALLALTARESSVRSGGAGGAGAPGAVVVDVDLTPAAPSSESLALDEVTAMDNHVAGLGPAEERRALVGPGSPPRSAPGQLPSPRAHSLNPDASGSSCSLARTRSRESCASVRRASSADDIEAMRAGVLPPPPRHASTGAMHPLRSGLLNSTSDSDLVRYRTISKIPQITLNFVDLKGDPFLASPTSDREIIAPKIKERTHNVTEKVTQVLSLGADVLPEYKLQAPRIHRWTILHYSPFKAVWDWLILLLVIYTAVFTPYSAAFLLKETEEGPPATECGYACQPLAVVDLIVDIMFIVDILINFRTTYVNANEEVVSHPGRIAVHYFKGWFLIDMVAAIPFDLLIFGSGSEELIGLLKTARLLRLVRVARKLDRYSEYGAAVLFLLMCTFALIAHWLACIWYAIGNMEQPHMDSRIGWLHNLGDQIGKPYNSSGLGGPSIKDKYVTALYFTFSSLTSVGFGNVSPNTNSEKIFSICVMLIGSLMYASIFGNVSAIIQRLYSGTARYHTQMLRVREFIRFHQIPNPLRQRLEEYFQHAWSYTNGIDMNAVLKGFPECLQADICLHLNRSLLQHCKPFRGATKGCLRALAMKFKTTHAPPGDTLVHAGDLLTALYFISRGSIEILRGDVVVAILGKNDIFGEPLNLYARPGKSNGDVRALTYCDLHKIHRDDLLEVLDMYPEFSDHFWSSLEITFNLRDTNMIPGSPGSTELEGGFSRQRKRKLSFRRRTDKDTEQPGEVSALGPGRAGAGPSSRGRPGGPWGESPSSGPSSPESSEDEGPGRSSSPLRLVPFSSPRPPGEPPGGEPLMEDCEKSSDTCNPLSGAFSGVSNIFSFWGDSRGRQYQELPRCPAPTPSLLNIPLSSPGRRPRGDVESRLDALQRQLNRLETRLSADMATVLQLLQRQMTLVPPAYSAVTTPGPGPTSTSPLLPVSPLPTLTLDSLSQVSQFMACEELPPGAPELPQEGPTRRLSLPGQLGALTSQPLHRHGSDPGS
Chain of CYP 2D6 (P10635 whole entry): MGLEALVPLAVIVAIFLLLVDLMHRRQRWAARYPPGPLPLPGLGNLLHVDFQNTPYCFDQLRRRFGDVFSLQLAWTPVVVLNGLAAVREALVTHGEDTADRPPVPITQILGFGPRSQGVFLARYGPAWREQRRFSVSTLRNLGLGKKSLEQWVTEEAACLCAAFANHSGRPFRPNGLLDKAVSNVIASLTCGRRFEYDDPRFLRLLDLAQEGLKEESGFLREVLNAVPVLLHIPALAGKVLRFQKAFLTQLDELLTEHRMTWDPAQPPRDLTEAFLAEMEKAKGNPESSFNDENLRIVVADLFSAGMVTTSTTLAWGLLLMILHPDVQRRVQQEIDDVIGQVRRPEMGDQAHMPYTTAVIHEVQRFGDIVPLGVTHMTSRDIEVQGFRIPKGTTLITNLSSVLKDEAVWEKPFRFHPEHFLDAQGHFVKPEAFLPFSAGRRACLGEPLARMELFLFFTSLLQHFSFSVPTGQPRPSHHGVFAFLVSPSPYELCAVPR

Compound: CSc1ccc(C(N)=O)cc1-c1ccc2c(cnn2C)c1 [Compound 16]
- PSA expression (% inhibition) ([1]; 10 μM): 34%
- solubility [2]: 2.6 µM (≈ 0.773 µg/mL)
- Papp A→B ([3]; apical to basolateral, read-out: Caco2 permeability Papp A2B): 331 nm/s
- Papp B→A ([3]; basolateral to apical, read-out: Caco2 permeability Papp B2A): 394 nm/s
- efflux ratio ([3]; read-out: Caco2 efflux ratio): 1.2
- Caco2 permeability Papp A2B ([4]; apical to basolateral): 33.1 nm/s
- Caco2 permeability Papp B2A ([4]; basolateral to apical): 39.4 nm/s
- microsomal CLint ([5]; read-out: HLM CLint): 25.6 µL/min/mg
- half-life ([5]; read-out: HLM t1/2): 54 min
- fraction unbound [6]: 0.069
- CYP450 inhibition, 3A4 isoform (in words) [7]: no inhibition
- IC50 [7]: > 25 µM
- CYP450 inhibition, 2D6 isoform (in words) [8]: no inhibition
- IC50 [8]: > 25 µM
- AUC0–t ([9]; iv 1 mg/kg): 0.131 µg·h/mL
- AUC0–∞ ([9]; iv 1 mg/kg): 0.132 µg·h/mL
- CL ([9]; iv 1 mg/kg): 126 mL min^–1 kg^–1
- Cmax ([9]; iv 1 mg/kg): 0.432 µg/mL
- Vss_obs ([9]; iv 1 mg/kg): 1.38 L/kg
- t1/2 ([9]; iv 1 mg/kg): 17.4 min
- AUC0–t ([9]; po 10 mg/kg): 0.173 µg·h/mL
- AUC0–∞ ([9]; po 10 mg/kg): 0.208 µg·h/mL
- Cmax ([9]; po 10 mg/kg): 0.195 µg/mL
- F (oral bioavailability) ([9]; po 10 mg/kg): 16%
- Tmax ([9]; po 10 mg/kg): 0.25
- t1/2 ([9]; po 10 mg/kg): 240 min
- hERG channel inhibition (in words) ([10]; Q-patch clamp assay): no hERG channel inhibition
- IC50 ([10]; read-out: hERG IC50): > 10 µM
- increase in potency over initial hit compound 7 ([11]; VCaP GRE2-luciferase IC50 ratio): 60 fold
- Lipophilic Ligand Efficiency (LLE) [11]: 4.7
- IC50 [11, 13]: 0.12 µM
- inhibition at 10 µM [12]: 35%

Compound: CSc1ccc(C(N)=O)cc1-c1ccc2cnccc2c1 [Compound 21]
- IC50 [11]: 0.9 µM
- Ligand Efficiency (LE) [11]: 0.59
- Lipophilic Ligand Efficiency (LLE) [11]: 6.0

Compound: CSc1ccc(C(N)=O)cc1-c1ccc2nccn2c1 [Compound 18]
- activity in VCaP GRE2-luciferase assay (in words) ([11]; VCaP cells, 1 nM DHT): no activity
- Ligand Efficiency (LE) [11]: 0.52
- Lipophilic Ligand Efficiency (LLE) [11]: 5.7
- IC50 [11, 13]: > 30 µM

Compound: CSc1ccc(C(N)=O)cc1-c1ccc2c(ccn2C)c1 [Compound 17]
- Ligand Efficiency (LE) [11]: 0.66
- Lipophilic Ligand Efficiency (LLE) [11]: 7.0
- IC50 [11, 13]: 0.09 µM

Compound: CSc1cc(C(N)=O)cc(-c2ccc3c(cnn3C)c2)c1 [Compound 39]
- activity in VCaP GRE2-luciferase assay (in words) ([11]; VCaP cells, 1 nM DHT): inactive
- Ligand Efficiency (LE) [11]: 0.49
- Lipophilic Ligand Efficiency (LLE) [11]: 5.3
- IC50 [11, 13]: > 30 µM

Compound: CSc1ccc(C(N)=O)cc1-c1ccno1 [Compound 7]
- Ligand Efficiency (LE) [11]: 0.70
- Lipophilic Ligand Efficiency (LLE) [11]: 6.7
- IC50 [11, 13]: 7.4 µM

Compound: Cn1ncc2cc(-c3cc(C(N)=O)ccc3O)ccc21 [Compound 49]
- activity in VCaP GRE2-luciferase assay (in words) ([11]; VCaP cells, 1 nM DHT): lack of activity
- Ligand Efficiency (LE) [11]: 0.52
- Lipophilic Ligand Efficiency (LLE) [11]: 6.1
- IC50 [11, 13]: > 30 µM

Compound: CC(C)(c1ccc(OCC(O)CO)cc1)c1ccc(OCC(O)CCl)cc1 (stereo not drawn) [EPI-001, reference compound]
- PSA expression (% inhibition) ([1]; 50 μM): 19%

Compound: COc1ncc(C(N)=O)cc1-c1ccc2c(cnn2C)c1 [Compound 37]
- Ligand Efficiency (LE) [11]: 0.49
- Lipophilic Ligand Efficiency (LLE) [11]: 6.5
- IC50 [11, 13]: > 30 µM

The next lines start with the values.

- activity in VCaP GRE2-luciferase assay (in words) ([11]; VCaP cells, 1 nM DHT): no activity
- Ligand Efficiency (LE) [11]: 0.49
- Lipophilic Ligand Efficiency (LLE) [11]: 5.5
- IC50 [11, 13]: > 30 µM
Compound: CSc1ccc(C(N)=O)cc1-c1cccc2c1CC(=O)N2 [Compound 19]

- Ligand Efficiency (LE) [11]: 0.38
- Lipophilic Ligand Efficiency (LLE) [11]: 4.7
- IC50 [11, 13]: > 30 µM
Compound: Cn1ncc2cc(-c3cc(C(N)=O)cnc3SCc3ccccc3)ccc21 [Compound 35]

- activity in VCaP GRE2-luciferase assay (in words) ([11]; VCaP cells, 1 nM DHT): loss of activity
- Ligand Efficiency (LE) [11]: 0.49
- Lipophilic Ligand Efficiency (LLE) [11]: 6.2
- IC50 [11, 13]: > 30 µM
Compound: CSc1ncc(C(N)=O)cc1-c1ccc2c(cnn2C)c1 [Compound 34]

- activity in VCaP GRE2-luciferase assay (in words) ([11]; VCaP cells, 1 nM DHT): loss of activity
- Ligand Efficiency (LE) [11]: 0.61
- Lipophilic Ligand Efficiency (LLE) [11]: 5.6
- IC50 [11, 13]: > 30 µM
Compound: CSc1ccc(C(N)=O)cc1-c1cccnc1 [Compound 22]

- activity in VCaP GRE2-luciferase assay (in words) ([11]; VCaP cells, 1 nM DHT): loss of activity
- Ligand Efficiency (LE) [11]: 0.49
- Lipophilic Ligand Efficiency (LLE) [11]: 5.0
- IC50 [11, 13]: > 30 µM
Compound: CCc1ccc(C(N)=O)cc1-c1ccc2c(cnn2C)c1 [Compound 42]

- activity in VCaP GRE2-luciferase assay (in words) ([11]; VCaP cells, 1 nM DHT): inactive
- Ligand Efficiency (LE) [11]: 0.61
- Lipophilic Ligand Efficiency (LLE) [11]: 4.6
- IC50 [11, 13]: > 30 µM
Compound: CSc1ccc(C(N)=O)cc1-c1ccccc1 [Compound 8]

- Ligand Efficiency (LE) [11]: 0.37
- Lipophilic Ligand Efficiency (LLE) [11]: 6.4
- IC50 [11, 13]: > 30 µM
Compound: Cn1ncc2cc(-c3cc(C(N)=O)ccc3NCCN3CCOCC3)ccc21 [Compound 54]
